The values below are quoted from earlier work in patent US20130064804A1, “BIO-REPLENISHMENT (BioRep) FOR IMPROVING SLEEP ARCHITECTURE” (Naidu LP, priority 2011, published 2013).

For series [1] the following is noted: typical dose (1 to 3 mg).
The conditions of series [2]: in vivo.

Consider `COc1ccc2[nH]cc(CCNC(C)=O)c2c1` [melatonin, N-acetyl-5-methoxytryptamine], for which the “elevation of blood melatonin levels above normal” value in series [1] is reported as 1 to 20 times. In the case of `C[S+](CC[C@H](N)C(=O)O)C[C@H]1O[C@@H](n2cnc3c(N)ncnc32)[C@H](O)[C@@H]1O` (some centres unmarked) [SAMe, S-adenosylmethionine], the “first-pass: fraction metabolized in the liver” value in series [2] was “approximately 50%”.
